# In ChEMBL document CHEMBL2073856, “Carrier-mediated hepatobiliary transport of a novel antifolate, N-[4-[(2,4-dianninopteridine-6-yl)methyl]-3,4-dihydro-2H-1,4-benzothiazin-7-yl]carbonyl-L-homoglutamic acid, in rats” (Drug Metab Dispos, 2001):
# How the values were obtained:
# [1] = biological target: ATP-binding cassette sub-family C member 2 (Rattus norvegicus, UniProt Q63120); assay: TP_TRANSPORTER: inhibition of DNP-SG uptake in bile canalicular membrane vesicles from SD rat; type: functional, cell membranes, Sprague-Dawley, Bile canalicular membrane vesicle
# [2] = substrate: Nc1nc(N)c2nc(CN3CCSc4cc(C(=O)NC(CCCC(=O)O)C(=O)O)ccc43)cnc2n1; assay: TP_TRANSPORTER: uptake in bile canalicular membrane vesicles from SD rat; type: functional, cell membranes, Sprague-Dawley, Bile canalicular membrane vesicle
Molecule,Ki [1] [µM],Km [2] [µM]
Nc1nc(N)c2nc(CN3CCSc4cc(C(=O)NC(CCCC(=O)O)C(=O)O)ccc43)cnc2n1 (configuration not stated),162,
ATP-binding cassette sub-family C member 2 (Rattus norvegicus) (protein) MDKFCNSTFWDLSLLESPEADLPLCFEQTVLVWIPLGFLWLLAPWQLYSVYRSRTKRSSITKFYLAKQVFVVFLLILAAIDLSLALTEDTGQATVPPVRYTNPILYLCTWLLVLAVQHSRQWCVRKNSWFLSLFWILSVLCGVFQFQTLIRALLKDSKSNMAYSYLFFVSYGFQIVLLILTAFSGPSDSTQTPSVTASFLSSITFSWYDRTVLKGYKHPLTLEDVWDIDEGFKTRSVTSKFEAAMTKDLQKARQAFQRRLQKSQRKPEATLHGLNKKQSQSQDVLVLEEAKKKSEKTTKDYPKSWLIKSLFKTFHVVILKSFILKLIHDLLVFLNPQLLKLLIGFVKSSNSYVWFGYICAILMFAVTLIQSFCLQSYFQHCFVLGMCVRTTVMSSIYKKALTLSNLARKQYTIGETVNLMSVDSQKLMDATNYMQLVWSSVIQITLSIFFLWRELGPSILAGVGVMVLLIPVNGVLATKIRNIQVQNMKNKDKRLKIMNEILSGIKILKYFAWEPSFQEQVQGIRKKELKNLLRFGQLQSLLIFILQITPILVSVVTFSVYVLVDSANVLNAEKAFTSITLFNILRFPLSMLPMVTSSILQASVSVDRLERYLGGDDLDTSAIRRVSNFDKAVKFSEASFTWDPDLEATIQDVNLDIKPGQLVAVVGTVGSGKSSLVSAMLGEMENVHGHITIQGSTAYVPQQSWIQNGTIKDNILFGSEYNEKKYQQVLKACALLPDLEILPGGDMAEIGEKGINLSGGQKQRVSLARAAYQDADIYILDDPLSAVDAHVGKHIFNKVVGPNGLLAGKTRIFVTHGIHFLPQVDEIVVLGKGTILEKGSYRDLLDKKGVFARNWKTFMKHSGPEGEATVNNDSEAEDDDDGLIPTMEEIPEDAASLAMRRENSLRRTLSRSSRSSSRRGKSLKNSLKIKNVNVLKEKEKEVEGQKLIKKEFVETGKVKFSIYLKYLQAVGWWSILFIILFYGLNNVAFIGSNLWLSAWTSDSDNLNGTNNSSSHRDMRIGVFGALGLAQGICLLISTLWSIYACRNASKALHGQLLTNILRAPMRFFDTTPTGRIVNRFSGDISTVDDLLPQTLRSWMMCFFGIAGTLVMICMATPVFAIIIIPLSILYISVQVFYVATSRQLRRLDSVTKSPIYSHFSETVTGLPIIRAFEHQQRFLAWNEKQIDINQKCVFSWITSNRWLAIRLELVGNLVVFCSALLLVIYRKTLTGDVVGFVLSNALNITQTLNWLVRMTSEAETNIVAVERISEYINVENEAPWVTDKRPPADWPRHGEIQFNNYQVRYRPELDLVLKGITCNIKSGEKVGVVGRTGAGKSSLTNCLFRILESAGGQIIIDGIDVASIGLHDLRERLTIIPQDPILFSGSLRMNLDPFNKYSDEEVWRALELAHLRSFVSGLQLGLLSEVTEGGDNLSIGQRQLLCLGRAVLRKSKILVLDEATAAVDLETDSLIQTTIRKEFSQCTVITIAHRLHTIMDSDKIMVLDNGKIVEYGSPEELLSNRGSFYLMAKEAGIENVNHTEL,,207
